Patent US20160000066A1, “Furfural derivatives as a vehicle” (priority 2013, published 2016)

What was measured:
Assay type in all cases: physicochemical
[1] = Solubilization of resins in the test solvent: Palatal A400-01; settings: Palatal A400-01 in the compound as solvent
Protocol: (§1) The following table lists the solubilities obtained for four resins tested: BADGE DER 331 epoxy resin sold by DOW CHEMICAL, Palatal A400-01 polyester resin sold by DSM, Novolac DEN 425 epoxy resin sold by DOW CHEMICAL and TGPA resin available from Sigma Aldrich.
(§2) A single solubility test was carried out per solvent/resin pair, at a working concentration of 100 g/l, at ambient temperature. The tests were carried out on the milliliter scale (i.e., 0.5 g/5 ml). The tests are carried out in transparent glass flasks. The resin (0.5 g) is weighed into the flask and then the required volume (5 ml) of test solvent is introduced into this same flask. Stirring is carried out using a vortex mixer for 1 to 5 minutes. The results for solubility of the resins in the solvents tested, shown in the table below, are obtained by visual observations.

[2] = Solubilization of resins in the test solvent: Novolac DEN 425; settings: Novolac DEN 425 in the compound as solvent
Protocol: as §1, §2

[3] = Solubilization of resins in the test solvent: BADGE DER 331; settings: BADGE DER 331 in the compound as solvent
Protocol: as §1, §2

[4] = Solubilization of resins in the test solvent: TGPA; settings: TGPA in the compound as solvent, visual
Protocol: as §1, §2

[5] = adjusted protocol: solvent heated on a water bath at 30° C. before the test

Solubility at ambient temperature (100 g/l) [1, 5]	Solubility at ambient temperature (100 g/l) [2, 5]	Solubility at ambient temperature (100 g/l) [3, 5]	Solubility at ambient temperature (100 g/l) ([1]; ambient temperature, visual)	Solubility at ambient temperature (100 g/l) [4]	Solubility at ambient temperature (100 g/l) ([2]; ambient temperature, visual)	Solubility at ambient temperature (100 g/l) ([3]; ambient temperature, visual)	Compound
Soluble*	Soluble*	Soluble*					CC(=O)/C=C/c1ccco1 [(1)]
			Soluble		Soluble	Partial	CCCOC(=O)c1ccco1 [(6)]
			Soluble	Soluble	Soluble	Soluble	CCCCCOC(=O)c1ccco1 [(9)]
			Soluble	Soluble	Soluble	Partial	CCCCN=Cc1ccco1 [(15)]
			Soluble	Soluble	Soluble	Partial	CCCCCCCCN=Cc1ccco1 [(16)]

More lines, now with the values behind:

Compound	Solubility at ambient temperature (100 g/l) [1, 5]	Solubility at ambient temperature (100 g/l) [2, 5]	Solubility at ambient temperature (100 g/l) [3, 5]	Solubility at ambient temperature (100 g/l) ([1]; ambient temperature, visual)	Solubility at ambient temperature (100 g/l) [4]	Solubility at ambient temperature (100 g/l) ([2]; ambient temperature, visual)	Solubility at ambient temperature (100 g/l) ([3]; ambient temperature, visual)
CC(C)C(=O)/C=C/c1ccco1 [(3)]				Soluble	Soluble	Soluble	Soluble
COC(=O)c1ccco1 [(8)]				Soluble	Soluble	Soluble	Soluble
O=C(OCCc1ccccc1)c1ccco1 [(10)]				Soluble	Soluble	Soluble	Soluble
Cc1ccc(C=O)o1 [(17)]				Soluble	Soluble	Soluble	Soluble
